Reference: patent US20130012546A1 (priority 2009, published 2013)

Columns and labels:
Phytophthora infestans = format: in vivo; details: tomato plants, preventive spray, 100 ppm of active ingredient, evaluated 7 days after inoculation
logP(HCOOH) by HPLC = format: physicochemical; details: for log p: HPLC on reversed phase columns, pH 2.7, 0.1% formic acid in water / acetonitrile, linear gradient 10% to 95% acetonitrile, EEC directive 79/831 Annex V.A8
Plasmopara viticola = experiment: Plasmopara test (grapevines) / preventive; format: in vivo; details: preventive spray, 10 ppm of active ingredient, evaluated 6 days after inoculation
Protocol: Plasmopara Test (Grapevines)/Preventive
Solvent: 24.5 parts by weight of acetone • 24.5 parts by weight of dimethylacetamide Emulsifier: 1 part by weight of alkylaryl polyglycol ether
To produce a suitable preparation of active compound, 1 part by weight of active compound is mixed with the stated amounts of solvent and emulsifier, and the concentrate is diluted with water to the desired concentration.
To test for preventive activity, young plants are sprayed with the preparation of active compound at the stated rate of application. After the spray coating has dried on, the plants are inoculated with an aqueous spore suspension of Plasmopara viticola and then remain for 1 day in an incubation cabinet at approximately 20° C. and a relative atmospheric humidity of 100%. The plant is subsequently placed for 4 days in a greenhouse at approximately 21° C. and a relative atmospheric humidity of approximately 90%. The plants are then misted and placed for 1 day in an incubation cabinet.
The test is evaluated 6 days after the inoculation. 0% means an efficacy which corresponds to that of the untreated control, while an efficacy of 100% means that no disease is observed.

Row | Structure (SMILES) | Efficacy % (Phytophthora infestans) [%] | log p (logP(HCOOH) by HPLC) | Efficacy % (Plasmopara viticola) [%] | chromatographic logP (logP(HCOOH) by HPLC; reversed phase HPLC column, pH 2.7, HCOOH, read-out: logP(HCOOH))
1 | C=CCCCOCC(=O)Nc1nc(CON=C(c2ccccc2)c2nnnn2C)cs1 [Example 6] | 95 | 3.52 | 90 | –
2 | Cc1nnnn1C(=NOCc1cccc(NC(=O)OC(C)CC2CC2)n1)c1ccccc1 (centres unmarked) [Example 14] | 95 | 4.24 | 94 | –
3 | Cc1nnnn1C(=NOCc1cccc(NC(=O)OCC2CCCCC2)n1)c1ccccc1 [Example 16] | 95 | 4.8 | 85 | –
4 | Cc1nnnn1C(=NOCc1cccc(NC(=O)OCCCC2CC2)n1)c1ccccc1 [Example 18] | 100 | 4.29 | 72 | –
5 | Cc1nnnn1C(=NOCc1cccc(NC(=O)OCC2CCCC2)n1)c1ccccc1 [Example 20] | 95 | 4.41 | 97 | –
6 | C#CCOCC(=O)Nc1cccc(CON=C(c2ccccc2)n2nnnc2C)n1 [Example 22] | 70 | 2.86 | – | –
7 | CON=C(C(=O)Nc1nc(CON=C(c2ccccc2)n2nnnc2C)cs1)c1ccc(Cl)cc1Cl [Example 23] | 90 | 4.49 | – | –
8 | Cc1nnnn1C(=NOCc1csc(NC(=O)OCCC2CCCCC2)n1)c1ccccc1 [Example 24] | 88 | 4.8 | – | –
9 | Cc1nnnn1C(=NOCc1csc(NC(=O)OCC2CCCCC2)n1)c1ccccc1 [Example 25] | 93 | 4.41 | – | –
10 | Cc1nnnn1C(=NOCc1csc(NC(=O)OCC2CC2)n1)c1ccccc1 [Example 26] | 70 | 3.27 | – | –
11 | CON=C(C(=O)Nc1nc(CON=C(c2ccccc2)n2nnnc2C)cs1)c1ccccc1Cl [Example 27] | 85 | 3.92 | – | –
12 | CON=C(C(=O)Nc1nc(CON=C(c2ccccc2)n2nnnc2C)cs1)c1ccc(Cl)cc1 [Example 28] | 80 | 4.32 | – | –
13 | CC(C)=NOC(C)C(=O)Nc1cccc(CO/N=C(/c2ccccc2)c2nnnn2C)n1 (centres unmarked) [Example 32] | 70 | 3.25 | – | –
14 | CC(=NOCC(=O)Nc1cccc(CON=C(c2ccccc2)c2nnnn2C)n1)c1ccccc1 [Example 33] | 80 | 3.92 | – | –
15 | CC(=NOCC(=O)Nc1nc(CON=C(c2ccccc2)c2nnnn2C)cs1)C(C)(C)C [Example 34] | 90 | 3.99 | – | –
16 | CC(C)=NOC(C)C(=O)Nc1nc(CO/N=C(/c2ccccc2)c2nnnn2C)cs1 (centres unmarked) [Example 35] | 95 | 3.11 | – | –
17 | CC(=NOCC(=O)Nc1nc(CON=C(c2ccccc2)c2nnnn2C)cs1)c1ccccc1 [Example 36] | 95 | 3.76 | – | –
18 | CC(=NOCC(=O)Nc1nc(CON=C(c2ccccc2)n2nnnc2C)cs1)C(C)(C)C [Example 37] | 88 | 4.04 | – | –
19 | CC(C)=NOC(C)C(=O)Nc1nc(CO/N=C(/c2ccccc2)n2nnnc2C)cs1 (centres unmarked) [Example 38] | 88 | 3.17 | – | –

Row | Structure (SMILES) | Efficacy % (Phytophthora infestans) [%] | log p (logP(HCOOH) by HPLC) | Efficacy % (Plasmopara viticola) [%] | chromatographic logP (logP(HCOOH) by HPLC; reversed phase HPLC column, pH 2.7, HCOOH, read-out: logP(HCOOH))
20 | C=CCCOCC(=O)Nc1cccc(CO/N=C(/c2ccccc2)c2nnnn2C)n1 [Example 40] | 85 | 3.39 | – | –
21 | C=CCCOC(C)C(=O)Nc1cccc(CO/N=C(/c2ccccc2)c2nnnn2C)n1 (centres unmarked) [Example 41] | 100 | 3.69 | – | –
22 | C=CCOC(C)C(=O)Nc1cccc(CO/N=C(/c2ccccc2)c2nnnn2C)n1 (centres unmarked) [Example 42] | 98 | 3.35 | 70 | –
23 | C=CCCOC(C)C(=O)Nc1nc(CO/N=C(/c2ccccc2)n2nnnc2C)cs1 (centres unmarked) [Example 43] | 95 | 3.53 | – | –
24 | C=CCCOCC(=O)Nc1nc(CO/N=C(/c2ccccc2)n2nnnc2C)cs1 [Example 44] | 93 | 3.23 | – | –
25 | C=CCOC(C)C(=O)Nc1nc(CO/N=C(/c2ccccc2)n2nnnc2C)cs1 (centres unmarked) [Example 45] | 95 | 3.19 | 84 | –
26 | C=CCCOC(C)C(=O)Nc1nc(CO/N=C(/c2ccccc2)c2nnnn2C)cs1 (centres unmarked) [Example 46] | 98 | 3.48 | 79 | –
27 | C=CCCOCC(=O)Nc1nc(CO/N=C(/c2ccccc2)c2nnnn2C)cs1 [Example 47] | 95 | 3.19 | 82 | –
28 | C=CCOC(C)C(=O)Nc1nc(CO/N=C(/c2ccccc2)c2nnnn2C)cs1 (centres unmarked) [Example 48] | 100 | 3.13 | 74 | –
29 | C#CCOC(C)C(=O)Nc1cccc(CO/N=C(/c2ccccc2)c2nnnn2C)n1 (centres unmarked) [Example 50] | 95 | 3.04 | – | –
30 | C#CCOC(C)C(=O)Nc1cccc(CO/N=C(/c2ccccc2)n2nnnc2C)n1 (centres unmarked) [Example 52] | 93 | 3.11 | – | –
31 | Cc1nnnn1/C(=N\OCc1csc(NC(=O)OC(C)CC2CC2)n1)c1ccccc1 (centres unmarked) [Example 56] | 95 | 3.87 | – | –
32 | Cn1nnnc1C(=NOCc1csc(NC(=O)OCC2CCCCC2)n1)c1ccccc1 [Example 61] | 98 | 4.37 | – | –
33 | Cn1nnnc1C(=NOCc1csc(NC(=O)OCCC2CCCCC2)n1)c1ccccc1 [Example 62] | 100 | 4.66 | 88 | –
34 | Cn1nnnc1C(=NOCc1csc(NC(=O)OCC2CC2)n1)c1ccccc1 [Example 63] | 100 | 3.23 | 93 | –
35 | CC(CC1CC1)OC(=O)Nc1nc(CON=C(c2ccccc2)c2nnnn2C)cs1 (centres unmarked) [Example 64] | 95 | 3.83 | 94 | –
36 | Cn1nnnc1C(=NOCc1cccc(NC(=O)COC2CCCCC2)n1)c1ccccc1 [Example 77] | 93 | 4.15 | – | –
37 | Cc1nnnn1C(=NOCc1csc(NC(=O)COC2CCCCC2)n1)c1ccccc1 [Example 78] | 100 | 3.89 | 79 | –
38 | Cc1nnnn1C(=NOCc1cccc(NC(=O)COC2CCCCC2)n1)c1ccccc1 [Example 79] | 90 | 4.25 | – | –

Row | Structure (SMILES) | Efficacy % (Phytophthora infestans) [%] | log p (logP(HCOOH) by HPLC) | Efficacy % (Plasmopara viticola) [%] | chromatographic logP (logP(HCOOH) by HPLC; reversed phase HPLC column, pH 2.7, HCOOH, read-out: logP(HCOOH))
39 | Cn1nnnc1C(=NOCc1csc(NC(=O)COC2CCC2)n1)c1ccccc1 [Example 80] | 90 | 3.19 | – | –
40 | Cn1nnnc1C(=NOCc1cccc(NC(=O)COC2CCC2)n1)c1ccccc1 [Example 81] | 80 | 3.46 | – | –
41 | Cc1nnnn1C(=NOCc1csc(NC(=O)COC2CCC2)n1)c1ccccc1 [Example 82] | 90 | 3.25 | – | –
42 | Cc1nnnn1C(=NOCc1cccc(NC(=O)COC2CCC2)n1)c1ccccc1 [Example 83] | 90 | 3.55 | – | –
43 | Cn1nnnc1C(=NOCc1csc(NC(=O)COC2CCCC2)n1)c1ccccc1 [Example 84] | 98 | 3.53 | 90 | –
44 | Cn1nnnc1C(=NOCc1cccc(NC(=O)COC2CCCC2)n1)c1ccccc1 [Example 85] | 95 | 3.83 | – | –
45 | Cc1nnnn1C(=NOCc1csc(NC(=O)COC2CCCC2)n1)c1ccccc1 [Example 86] | 95 | 3.6 | 81 | –
46 | Cc1nnnn1C(=NOCc1cccc(NC(=O)COC2CCCC2)n1)c1ccccc1 [Example 87] | 90 | 3.92 | – | –
47 | Cc1nnnn1C(=NOCc1cccc(NC(=O)COC2CCCCCC2)n1)c1ccccc1 [Example 88] | 95 | 4.67 | – | –
48 | Cn1nnnc1C(=NOCc1cccc(NC(=O)COC2CCCCCC2)n1)c1ccccc1 [Example 90] | 100 | 4.56 | – | –
49 | Cc1nnnn1C(=NOCc1csc(NC(=O)C(C)OC2CCCCC2)n1)c1ccccc1 (centres unmarked) [Example 94] | 93 | 4.21 | – | –
50 | CC(OC1CCCCCC1)C(=O)Nc1nc(CON=C(c2ccccc2)c2nnnn2C)cs1 (centres unmarked) [Example 95] | 95 | 4.51 | – | –
51 | Cc1nnnn1C(=NOCc1csc(NC(=O)C(C)OC2CCCCCC2)n1)c1ccccc1 (centres unmarked) [Example 96] | 98 | 4.58 | – | –
52 | CC(OC1CCCC1)C(=O)Nc1nc(CO/N=C(/c2ccccc2)c2nnnn2C)cs1 (centres unmarked) [Example 97, 2-(cyclopentyloxy)-N-{4-[({[(Z)-(1-methyl-1H-tetrazol-5-yl)(phenyl)methylene]amino}oxy)methyl]-1,3-thiazol-2-yl}propanamide] | 95 | – | – | 3.8
53 | CC(OC1CCCC1)C(=O)Nc1cccc(CON=C(c2ccccc2)c2nnnn2C)n1 (centres unmarked) [Example 98] | 98 | 4.11 | – | –
54 | CC(OC1CCCCC1)C(=O)Nc1cccc(CON=C(c2ccccc2)c2nnnn2C)n1 (centres unmarked) [Example 99] | 90 | 4.49 | – | –
55 | CC1CCC(C(C)C)C(OCC(=O)Nc2nc(CON=C(c3ccccc3)c3nnnn3C)cs2)C1 (centres unmarked) [Example 107] | 95 | 5.39 | – | –
56 | CC1CCC(C(C)C)C(OCC(=O)Nc2nc(CON=C(c3cccc(F)c3)c3nnnn3C)cs2)C1 (centres unmarked) [Example 109] | 84 | 5.47 | – | –
